Several values for one entry are separate records, joined by “and”; a condition that tells them apart may be missing. Identical values can stand only once.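 Each compound was tested at five concentrations against cells in 96-well plates for 48 hours. GI50 marks 50% less growth. At the TGI there is no net growth.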
What was measured:
Test in all cases: DTP human tumour cell line panel, 48 h
[1] = system: OVCAR-3 ovarian
[2] = system: M19-MEL melanoma
[3] = system: MDA-N
[4] = system: EKVX NSCLC
[5] = system: KM20L2 colon
[6] = system: IGROV1 ovarian
[7] = system: COLO 205 colon
[8] = system: LXFL 529 NSCLC
[9] = system: NCI-H23 lung
[10] = system: HCT-116 colon
[11] = system: XF 498 CNS
[12] = system: DMS 273 small cell lung
[13] = system: PC-3 prostate
[14] = system: SNB-78 CNS
[15] = system: HOP-18 NSCLC
[16] = system: 786-0 renal
[17] = system: NCI-H226 lung
[18] = system: HOP-62 NSCLC
[19] = system: NCI-H460 lung
[20] = system: MCF7 breast
[21] = system: RXF 393 renal
[22] = system: K-562 leukemia
[23] = system: SK-MEL-5 melanoma
[24] = system: A549 NSCLC
[25] = system: SNB-19 CNS
[26] = system: ACHN renal
[27] = system: T-47D breast
[28] = system: U251 CNS
[29] = system: BT-549 breast
[30] = system: UO-31 renal
[31] = system: SK-OV-3 ovarian
[32] = system: M14 melanoma
[33] = system: LOX IMVI melanoma
[34] = system: CAKI-1 renal
[35] = system: HT29 colon
[36] = system: A498 renal
[37] = system: SF-539 CNS
[38] = system: SK-MEL-2 melanoma
[39] = system: SF-295 CNS
[40] = system: MDA-MB-435
[41] = system: HOP-92 NSCLC
[42] = system: SR leukemia
[43] = system: MALME-3M melanoma
[44] = system: OVCAR-5 ovarian
[45] = system: HCT-15 colon
[46] = system: OVCAR-8 ovarian
[47] = system: SW-620 colon
[48] = system: KM12 colon
[49] = system: HCC-2998 colon
[50] = system: DLD-1 colon
[51] = system: UACC-257 melanoma
[52] = system: DU-145 prostate
[53] = system: SK-MEL-28 melanoma
[54] = system: TK-10 renal
[55] = system: SNB-75 CNS
[56] = system: NCI-H522 lung
[57] = system: SN12C renal
[58] = system: OVCAR-4 ovarian
[59] = system: HS 578T breast
[60] = system: MDA-MB-231 breast
[61] = system: UACC-62 melanoma
[62] = system: SF-268 CNS

## CCC/C(=N\NC(=S)N1CC2CCC(CC2)C1)c1ccccn1
[1]
  GI50: 24.6 nM
  TGI: 872 nM and 622 nM
[2]
  TGI: 298 nM and 1460 nM
[3]
  TGI: 2720 nM
[4]
  GI50: 186 nM
[5]
  GI50: 16.5 nM
[6]
  GI50: 372 nM
  TGI: 1400 nM and 2210 nM
[7]
  GI50: 13.8 nM
  TGI: 99.7 nM and 281 nM
[8]
  TGI: 143 nM and 129 nM
[9]
  GI50: 14.1 nM
  TGI: 2770 nM and 674 nM
[10]
  TGI: 860 nM
[11]
  GI50: 10.6 nM
  TGI: 98.1 nM and 530 nM
[12]
  TGI: 374 nM and 2350 nM
[13]
  TGI: 1390 nM
[14]
  GI50: 408 nM
  TGI: 8710 nM
[15]
  GI50: 67.5 nM
  TGI: 440 nM and 898 nM
[16]
  GI50: 1250 nM
  TGI: 1190 nM and 2550 nM
[17]
  GI50: 1130 nM
  TGI: 4790 nM and 2580 nM
[18]
  GI50: 1160 nM
  TGI: 4920 nM and 2700 nM
[19]
  TGI: 927 nM
[20]
  TGI: 1440 nM
[21]
  GI50: 35.6 nM
  TGI: 1340 nM and 518 nM
[22]
  TGI: 1230 nM
[23]
  GI50: 46.7 nM
  TGI: 757 nM and 483 nM
[24]
  GI50: 122 nM
  TGI: 5230 nM and 2010 nM
[25]
  GI50: 338 nM
  TGI: 2040 nM and 1920 nM
[26]
  GI50: 80.8 nM
  TGI: 2720 nM and 2090 nM
[27]
  TGI: 233 nM
[28]
  GI50: 142 nM
  TGI: 627 nM and 1380 nM
[29]
  TGI: 1960 nM
[30]
  GI50: 124 nM
  TGI: 4260 nM and 1790 nM
[31]
  GI50: 1100 nM
  TGI: 2130 nM and 2310 nM
[32]
  GI50: 14.2 nM
  TGI: 598 nM and 207 nM
[33]
  GI50: 19.9 nM
  TGI: 4310 nM and 2130 nM
[34]
  GI50: 1030 nM
  TGI: 2750 nM and 2690 nM
[35]
  GI50: 24.4 nM
  TGI: 1650 nM and 2510 nM
[36]
  GI50: 263 nM
  TGI: 2060 nM and 1610 nM
[37]
  GI50: 1160 nM
  TGI: 1550 nM and 5360 nM
[38]
  GI50: 1020 nM
[39]
  GI50: 114 nM
  TGI: 1200 nM
[40]
  TGI: 3240 nM
[41]
  GI50: 36.2 nM
  TGI: 879 nM and 1340 nM
[42]
  TGI: 2770 nM
[43]
  TGI: 2760 nM and 1990 nM
[44]
  GI50: 1250 nM
  TGI: 5640 nM and 3000 nM
[45]
  TGI: 716 nM and 2910 nM
[46]
  TGI: 2820 nM and 2100 nM
[47]
  TGI: 555 nM and 221 nM
[48]
  GI50: 38.2 nM
  TGI: 631 nM and 1320 nM
[49]
  GI50: 244 nM
  TGI: 1480 nM and 1860 nM
[50]
  TGI: 3330 nM
[51]
  TGI: 197 nM and 1350 nM
[52]
  TGI: 2820 nM
[53]
  GI50: 47.9 nM
  TGI: 5160 nM and 1290 nM
[54]
  TGI: 5840 nM and 2900 nM
[55]
  GI50: 595 nM
  TGI: 3210 nM and 2180 nM
[56]
  TGI: 738 nM
[57]
  GI50: 161 nM
  TGI: 4540 nM and 4730 nM
[58]
  GI50: 119 nM
  TGI: 897 nM and 702 nM
[59]
  TGI: 4430 nM
[60]
  TGI: 2750 nM
[61]
  GI50: 32.9 nM
  TGI: 1140 nM and 642 nM
[62]
  GI50: 332 nM
  TGI: 8330 nM and 2600 nM
